We go through 22 compounds from patent publication US20240336594A1, “SIX-MEMBERED ARYL OR HETEROARYL AMIDES, AND COMPOSITION AND USE THEREOF” (BETTA PHARMACEUTICALS CO., LTD, priority 2021, published 2024).

pIC50: −log10 of the molar value.

The target of the assay is T1, MALT1 (Homo sapiens, UniProt Q9UDY8).
T1 sequence (Q9UDY8 1-824): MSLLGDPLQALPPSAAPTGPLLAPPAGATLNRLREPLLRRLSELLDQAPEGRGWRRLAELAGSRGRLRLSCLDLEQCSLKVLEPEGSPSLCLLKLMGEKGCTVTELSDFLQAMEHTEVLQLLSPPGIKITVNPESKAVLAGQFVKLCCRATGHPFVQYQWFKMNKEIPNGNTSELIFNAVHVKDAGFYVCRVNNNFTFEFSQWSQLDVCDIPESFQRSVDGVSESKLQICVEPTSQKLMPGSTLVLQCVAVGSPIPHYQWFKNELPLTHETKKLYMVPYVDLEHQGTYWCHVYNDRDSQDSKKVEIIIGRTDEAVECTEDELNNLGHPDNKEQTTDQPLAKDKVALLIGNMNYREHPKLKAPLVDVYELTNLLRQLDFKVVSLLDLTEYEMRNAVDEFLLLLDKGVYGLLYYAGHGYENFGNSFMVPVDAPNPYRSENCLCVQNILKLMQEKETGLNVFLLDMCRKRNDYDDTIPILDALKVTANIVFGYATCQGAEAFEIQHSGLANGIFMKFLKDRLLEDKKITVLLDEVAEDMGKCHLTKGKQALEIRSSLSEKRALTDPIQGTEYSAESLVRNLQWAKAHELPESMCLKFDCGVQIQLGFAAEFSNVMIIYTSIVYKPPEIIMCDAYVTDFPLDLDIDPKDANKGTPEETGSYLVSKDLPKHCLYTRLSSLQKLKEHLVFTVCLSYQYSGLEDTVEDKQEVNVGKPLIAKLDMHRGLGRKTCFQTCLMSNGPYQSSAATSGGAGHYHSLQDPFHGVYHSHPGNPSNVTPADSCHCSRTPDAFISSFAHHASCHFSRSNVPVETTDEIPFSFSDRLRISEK
Kind of assay: MALT1 protease inhibition assay (AMC-labeled peptide, fluorescence 360/460). The class given is biochemical. The settings on record: substrate Ac-LRSR-AMC, 15 min preincubation, 90 min at 25° C. On the procedure: Test compounds of the present invention (in 100% DMSO) were spotted into a 384-well dilution plate and serially diluted to the required concentrations with DMSO. Then, 0.2 μL of the test compounds were transferred into a new 384-well reaction plate by Echo following centrifugation. The MALT enzyme and its substrate, AMC-labeled peptide, were prepared in 1× protease buffer to yield 2× enzyme solution and 2× peptide solution. Subsequently, 10 μL of 2× enzyme solution was added into the 384-well reaction plate, incubating with the test compounds for 15 minutes at 25° C. After that, 10 μL of 2× peptide solution was added into the plate, continuing to incubate for 90 minutes at 25° C. The plate was then placed on an Envision multifunctional microplate reader to collect raw data, which would be converted into inhibition rate:
Inhibition rate %=(max−sample)/(max−min)*100%. • “max” values were measured using the reaction with enzyme but no compound treated, while “min” values were generated from control wells containing assay buffer without enzyme.
Curve fitting was done with Graphpad Prism software to determine the IC50 values. The specific experimental operations are as follows:
58.82 g Na Citrate·2H2O powder was added into 140 mL ddH2O and mixed in a 37° C. water bath. Once there were no visible particles, the remaining solutions were added successively with continuous stirring for 10 minutes. The final volume was adjusted to 200 mL. The buffer was stored at room temperature. DTT was added before use.
• 1) All test compounds were diluted from 10 mM stock solution into 1 mM in a 384 well dilution plate (labcyte, PP-0200); • 2) Ten various concentrations of the diluted compound solution above were obtained by serial dilution at an equal ratio of 1:3; • 3) 0.2 μL DMSO was transferred to two empty wells of the 384 reaction plate as blank controls without compound and enzyme respectively; • 4) 0.2 μL of the test compound at different concentrations was also transferred into the 384 reaction plate by Echo, with two duplicate wells for each concentration, then the plate was centrifuged at 1000 rpm for 1 min.
• 1) The MALT1 protease and AMC-labeled peptide was prepared in 1× protease buffer to obtain 2× enzyme solution and 2× peptide solution. 10 μL of 2× enzyme solution was added into the 384-well reaction plate. The plate was centrifuged at 1000 rpm for 1 min and incubated for 15 min at 25° C. • 2) 10 μL of 2× peptide solution was then transferred to the 384 reaction plate, and the plate was centrifuged at 1000 rpm for 1 min and incubate for 90 min at 25° C.
For the compound `C#Cc1cnccc1-c1cc(Cl)c(C(=O)Nc2cnc(C(=O)NCC(=O)N(CC)CC)c(Cl)c2)cc1F` [Example A435, 3-chloro-5-(2-chloro-4-(3-ethynylpyridin-4-yl)-5-fluorobenzamido)-N-(2-(diethylamino)-2-oxoethyl)picolinamide], the pIC50 (as a rule, the negative decadic logarithm of the IC50, by convention in mol/L) was 7.00 to 8.00. `CC1(CNC(=O)c2ncc(NC(=O)c3cc(F)c(-c4ccc(F)cc4N)cc3Cl)cc2Cl)CC1` [Example A436, 5-(2′-amino-5-chloro-2,4′-difluoro-[1,1′-biphenyl]-4-carboxamido)-3-chloro-N-((1-methylcyclopropyl)methyl) picolinamide] showed a negative-log IC50 (pIC50) of 6.30 to 7.00. `Nc1cc(F)ccc1-c1cc(Cl)c(C(=O)Nc2cnc(C(=O)NCC3CCS(=O)(=O)CC3)c(Cl)c2)cc1F` [Example A437, 5-(2′-amino-5-chloro-2,4′-difluoro-[1,1′-biphenyl]-4-carboxamido)-3-chloro-N-((1,1-dioxidotetrahydro-2H-thiopyran-4-yl)methyl)picolinamide] gave a pIC50 of 7.00 to 8.00. The value for `CCCCNC(=O)c1ncc(NC(=O)c2cc(F)c(-c3ccc(F)cc3N)cc2Cl)cc1Cl` [Example A438, 5-(2′-amino-5-chloro-2,4′-difluoro-[1,1′-biphenyl]-4-carboxamido)-N-butyl-3-chloropicolinamide] was 7.00 to 8.00; that for `C#CCNC(=O)c1ncc(NC(=O)c2cc(F)c(-c3ccc(F)cc3N)cc2Cl)cc1Cl` [Example A439, 5-(2′-amino-5-chloro-2,4′-difluoro-[1,1′-biphenyl]-4-carboxamido)-3-chloro-N-(prop-2-yn-1-yl) picolinamide] was < 6.30.

Compound `O=C(Nc1cnc(-n2nccn2)c(C(F)(F)F)c1)c1cc(F)c(-c2c(Br)cncc2[N+](=O)[O-])cc1Cl` [Example A440, N-(6-(2H-1,2,3-triazol-2-yl)-5-(trifluoromethyl)pyridin-3-yl)-4-(3-bromo-5-nitropyridin-4-yl)-2-chloro-5-fluorobenzamide] gave a pIC50 of 7.00 to 8.00. With `N#CCNC(=O)c1ncc(NC(=O)c2cc(F)c(-c3ccc(F)cc3N)cc2Cl)cc1Cl` [Example A441, 5-(2′-amino-5-chloro-2,4′-difluoro-[1,1′-biphenyl]-4-carboxamido)-3-chloro-N-(cyanomethyl)picolinamide], the pIC50 is 7.00 to 8.00.

`Cc1cc(F)cc(N)c1-c1cc(Cl)c(C(=O)Nc2cnc(C(=O)NCC#N)c(Cl)c2)cc1F` [Example A442, 5-(2′-amino-5-chloro-2,4′-difluoro-6′-methyl-[1,1′-biphenyl]-4-carboxamido)-3-chloro-N-(cyanomethyl)picolinamide]: the pIC50 was 7.00 to 8.00. The value for `Nc1cc(F)ccc1-c1cc(Cl)c(C(=O)Nc2cnc(C(=O)NCC(F)(F)F)c(Cl)c2)cc1F` [Example A443, 5-(2′-amino-5-chloro-2,4′-difluoro-[1,1′-biphenyl]-4-carboxamido)-3-chloro-N-(2,2,2-trifluoroethyl)picolinamide] was ≥ 8.00; that for `CCNC(=O)c1ncc(NC(=O)c2cc(F)c(-c3ccc(F)cc3N)cc2Cl)cc1Cl` [Example A444, 5-(2′-amino-5-chloro-2,4′-difluoro-[1,1′-biphenyl]-4-carboxamido)-3-chloro-N-ethylpicolinamide] was ≥ 8.00.

In the case of `O=C(Nc1cnc(-n2nccn2)c(Cl)c1)c1cc(F)c(-c2ccncc2C2CC2)cc1Cl` [Example A445, 2-chloro-N-(5-chloro-6-(2H-1,2,3-triazol-2-yl)pyridin-3-yl)-4-(3-cyclopropylpyridin-4-yl)-5-fluorobenzamide], the negative-log IC50 (pIC50) was 7.00 to 8.00.

For `CC(C)(C)CNC(=O)c1ncc(NC(=O)c2cc(F)c(-c3ccc(F)cc3N)cc2Cl)cc1Cl` [Example A446, 5-(2′-amino-5-chloro-2,4′-difluoro-[1,1′-biphenyl]-4-carboxamido)-3-chloro-N-neopentylpicolinamide], the pIC50 is ≥ 8.00. As to `Nc1cc(F)ccc1-c1cc(Cl)c(C(=O)Nc2cnc(C(=O)NCc3ccoc3)c(Cl)c2)cc1F` [Example A447, 5-(2′-amino-5-chloro-2,4′-difluoro-[1,1′-biphenyl]-4-carboxamido)-3-chloro-N-(furan-3-ylmethyl)picolinamide], the pIC50 was 7.00 to 8.00.

As for `COCCNC(=O)c1ncc(NC(=O)c2cc(F)c(-c3ccc(F)cc3N)cc2Cl)cc1Cl` [Example A449, 5-(2′-amino-5-chloro-2,4′-difluoro-[1,1′-biphenyl]-4-carboxamido)-3-chloro-N-(2-methoxyethyl)picolinamide], the pIC50 is 7.00 to 8.00. The value for `CC(C#N)NC(=O)c1ncc(NC(=O)c2cc(F)c(-c3ccc(F)cc3N)cc2Cl)cc1Cl` (stereo not shown) [Example A450, 5-(2′-amino-5-chloro-2,4′-difluoro-[1,1′-biphenyl]-4-carboxamido)-3-chloro-N-(1-cyanoethyl)picolinamide] was 7.00 to 8.00.

Turning to `Nc1cc(F)ccc1-c1cc(Cl)c(C(=O)Nc2cnc(C(=O)NCC3CC(F)(F)C3)c(Cl)c2)cc1F` [Example A451, 5-(2′-amino-5-chloro-2,4′-difluoro-[1,1′-biphenyl]-4-carboxamido)-3-chloro-N-((3,3-difluorocyclobutyl)methyl) picolinamide], the pIC50 is 7.00 to 8.00. The value for `Nc1cc(F)ccc1-c1cc(Cl)c(C(=O)Nc2cnc(C(=O)NCc3nnco3)c(Cl)c2)cc1F` [Example A452, N-((1,3,4-oxadiazol-2-yl)methyl)-5-(2′-amino-5-chloro-2,4′-difluoro-[1,1′-biphenyl]-4-carboxamido)-3-chloropicolinamide] was 6.30 to 7.00; that for `CN(C)CCNC(=O)c1ncc(NC(=O)c2cc(F)c(-c3ccc(F)cc3N)cc2Cl)cc1Cl` [Example A453, 5-(2′-amino-5-chloro-2,4′-difluoro-[1,1′-biphenyl]-4-carboxamido)-3-chloro-N-(2-(dimethylamino)ethyl) picolinamide] was 6.30 to 7.00.

On to `Nc1cc(F)ccc1-c1cc(Cl)c(C(=O)Nc2cnc(C(=O)NCC3CCC3)c(Cl)c2)cc1F` [Example A454, 5-(2′-amino-5-chloro-2,4′-difluoro-[1,1′-biphenyl]-4-carboxamido)-3-chloro-N-(cyclobutylmethyl) picolinamide], for which the pIC50 was 6.30 to 7.00. The value for `Cn1ccc(CNC(=O)c2ncc(NC(=O)c3cc(F)c(-c4ccc(F)cc4N)cc3Cl)cc2Cl)n1` [Example A455, 5-(2′-amino-5-chloro-2,4′-difluoro-[1,1′-biphenyl]-4-carboxamido)-3-chloro-N-((1-methyl-1H-pyrazol-3-yl)methyl)picolinamide] was 7.00 to 8.00; that for `N#CCNC(=O)c1ncc(NC(=O)c2cc(F)c(-c3ccc(F)nc3N)cc2Cl)cc1Cl` [Example A456, 5-(4-(2-amino-6-fluoropyridin-3-yl)-2-chloro-5-fluorobenzamido)-3-chloro-N-(cyanomethyl)picolinamide] was 7.00 to 8.00; that for `Nc1cc(F)ccc1-c1cc(Cl)c(C(=O)Nc2cnc(C(=O)NCC(F)(F)C(F)(F)C(F)(F)F)c(Cl)c2)cc1F` [Example A458, 5-(2′-amino-5-chloro-2,4′-difluoro-[1,1′-biphenyl]-4-carboxamido)-3-chloro-N-(2,2,3,3,4,4,4-heptafluorobutyl) picolinamide] was < 6.30.
